Laboratory results published in US20050130913A1, “Synergistic insecticidal mixtures” (priority 2002, published 2005).

Legend:
Type in all cases: in vivo
[1] = system: mustard beetle larvae (Phaedon cochleariae); experiment: Phaedon larvae test (Example F); conditions: found effect, dipped cabbage leaves
Description: (§1) • Solvent: 7 parts by weight of dimethylformamide • Emulsifier: 2 parts by weight of alkylaryl polyglycol ether
(§2) After the desired period, the destruction in % is determined. 100% means that all of the beetle larvae have been destroyed; 0% means that no beetle larvae have been destroyed. The destruction values determined are calculated using Carpenter's formula.

[2] = system: army worm caterpillars (Spodoptera frugiperda); experiment: Spodoptera frugiperda test (Example G); conditions: found effect, dipped cabbage leaves
Description: (§3) Spodoptera frugiperda Test
as §1
(§4) Cabbage leaves (Brassica oleracea) are treated by being dipped into the active compound preparation of the desired concentration and are populated with army worm caterpillars (Spodoptera frugiperda) while the leaves are still moist.
(§5) After the desired period, the destruction in % is determined. 100% means that all of the caterpillars have been destroyed; 0% means that no caterpillars have been destroyed. The destruction values determined are calculated using Carpenter's formula.

[3] = system: mustard beetle larvae (Phaedon cochleariae); conditions: found effect, dipped cabbage leaves (Brassica oleracea)
Description: as §1, §2

[4] = system: diamond-back moth caterpillars (Plutella xylostella, resistant strain); experiment: Plutella test, resistant strain (Example D); conditions: found effect, dipped cabbage leaves
Description: Plutella Test, Resistant Strain
as §1
Cabbage leaves (Brassica oleracea) are treated by being dipped into the active compound preparation of the desired concentration and are populated with diamond-back moth caterpillars (Plutella xylostella, resistant strain) while the leaves are still moist.
as §5

[5] = system: army worm caterpillars (Spodoptera frugiperda); conditions: found effect, dipped cabbage leaves
Description: as §3
• Solvent: 7 parts by weight of dimethylformamide • Emulsifier: 2 parts by weight of alkylaryl polyglycol ether.
as §4, §5

[6] = system: Heliothis armigera caterpillars; conditions: found effect, dipped soya bean shoots (Glycine max)
Description: as §1
Soya bean shoots (Glycine max) are treated by being dipped into the active compound preparation of the desired concentration and are populated with Heliothis armigera caterpillars while the leaves are still moist.
After the desired period, the destruction in % is determined. 100% means that all of the caterpillars have been destroyed; 0% means that no caterpillars have been destroyed. The destruction values determined are calculated using Carpenter's formula (see previous page).

[7] = system: diamond-back moth caterpillars (Plutella xylostella, sensitive strain); experiment: Plutella test, sensitive strain (Example C); conditions: found effect, dipped cabbage leaves
Description: Plutella Test, Sensitive Strain
as §1
Cabbage leaves (Brassica oleracea) are treated by being dipped into the active compound preparation of the desired concentration and are populated with diamond-back moth caterpillars (Plutella xylostella, sensitive strain) while the leaves are still moist.
as §5

Row | Compound | LC95 after 6 days [1] [ppm] | LC95 after 6 days [2] [ppm] | LC50 after 6 days [3] [ppm] | LC95 after 6 days [4] [ppm] | LC50 after 6 days [5] [ppm] | LC50 after 6 days [6] [ppm] | LC95 after 6 days [7] [ppm]
1 | CC[C@H](C)[C@H]1O[C@]2(C=C[C@@H]1C)C[C@@H]1C[C@@H](C/C=C(\C)[C@@H](O[C@H]3C[C@H](OC)[C@@H](O[C@H]4C[C@H](OC)[C@@H](O)[C@H](C)O4)[C@H](C)O3)[C@@H](C)/C=C/C=C3\CO[C@@H]4[C@H](O)C(C)=C[C@@H](C(=O)O1)[C@]34O)O2 [Avermectin, abamectin] | 0.345 | 30.104 | – | – | – | – | –
2 | emamectin benzoate | – | – | 0.026 | 0.0033 | 0.0029 | 0.007 | 0.0009
